Results on three compounds are retold here after ChEMBL document CHEMBL1201862, “PubChem BioAssay data set” (2004).

In assay [1] the target is T1, Protein Tat (Human immunodeficiency virus type 1 group M subtype B (isolate HXB2)(HIV-1), UniProt P04608).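 Also: tat binding to TAR RNA read out by fluorescence polarization.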
T1 sequence (P04608 whole entry): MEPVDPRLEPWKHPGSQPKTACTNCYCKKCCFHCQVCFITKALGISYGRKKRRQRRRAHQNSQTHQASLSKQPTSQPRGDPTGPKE
The format is functional.

Assay [2] can be described thus: HepG2 cell cytotoxicity, dose response, cytotoxicity control, plate reader, cherry-pick, antagonist series (AID 743416). It is filed as functional, cell-based.
The target in assay [3] is T2, Aspartyl aminopeptidase (Plasmodium falciparum 3D7, UniProt Q8I2J3).
T2 sequence (Q8I2J3 whole entry): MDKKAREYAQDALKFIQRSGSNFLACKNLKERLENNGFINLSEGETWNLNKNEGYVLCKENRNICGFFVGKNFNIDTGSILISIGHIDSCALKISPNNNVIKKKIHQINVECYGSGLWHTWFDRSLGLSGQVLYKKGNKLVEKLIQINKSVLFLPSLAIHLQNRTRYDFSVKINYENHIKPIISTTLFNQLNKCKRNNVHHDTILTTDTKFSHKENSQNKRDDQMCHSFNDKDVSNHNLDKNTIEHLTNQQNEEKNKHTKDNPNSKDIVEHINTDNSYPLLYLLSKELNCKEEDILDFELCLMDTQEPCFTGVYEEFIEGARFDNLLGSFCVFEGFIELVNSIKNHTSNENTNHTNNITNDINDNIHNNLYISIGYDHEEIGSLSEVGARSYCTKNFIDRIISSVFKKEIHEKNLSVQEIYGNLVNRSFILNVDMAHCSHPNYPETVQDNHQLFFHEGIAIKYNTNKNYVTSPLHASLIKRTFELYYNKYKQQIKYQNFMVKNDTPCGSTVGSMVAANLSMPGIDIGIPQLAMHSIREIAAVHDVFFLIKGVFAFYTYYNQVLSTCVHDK

For assay [4], the target named is Polyadenylate-binding protein 1 (Homo sapiens, UniProt P11940). Briefly: PABP1 MLLE–PAM2 binding inhibitor potency, dose response, biochemical, fluorescence polarization, FITC-PAM2 peptide (AID 602259). It is filed as functional. Particulars: read-out: IC50_Mean. On the technique in general: Polarisation of emitted light reports the rotation of a fluorescent probe.
Chain of Polyadenylate-binding protein 1 (P11940 whole entry): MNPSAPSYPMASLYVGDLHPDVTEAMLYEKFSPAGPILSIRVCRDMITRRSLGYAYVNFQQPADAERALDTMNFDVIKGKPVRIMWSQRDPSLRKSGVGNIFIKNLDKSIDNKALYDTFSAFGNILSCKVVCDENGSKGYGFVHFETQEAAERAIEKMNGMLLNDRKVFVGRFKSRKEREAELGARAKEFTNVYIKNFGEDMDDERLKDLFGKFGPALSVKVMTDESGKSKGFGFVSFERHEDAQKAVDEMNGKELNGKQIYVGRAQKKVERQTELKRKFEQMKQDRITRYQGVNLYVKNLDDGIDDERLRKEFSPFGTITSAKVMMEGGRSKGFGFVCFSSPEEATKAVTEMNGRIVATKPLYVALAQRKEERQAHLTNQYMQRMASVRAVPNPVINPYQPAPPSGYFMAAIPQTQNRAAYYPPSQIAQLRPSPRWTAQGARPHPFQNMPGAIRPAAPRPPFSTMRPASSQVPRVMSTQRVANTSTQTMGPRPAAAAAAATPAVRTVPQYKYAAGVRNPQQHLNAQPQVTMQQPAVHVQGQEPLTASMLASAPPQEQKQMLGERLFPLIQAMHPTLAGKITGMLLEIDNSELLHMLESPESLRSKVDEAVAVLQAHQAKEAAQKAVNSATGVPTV

A short description of assay [5]: C. albicans growth with fluconazole, confirmation, fluorescence, retest (AID 2467). It is filed as functional, cell-based.
Assay [6] concerns the target Histone-lysine N-methyltransferase NSD2 (Homo sapiens, UniProt O96028). The format is biochemical.
The nature of assay [7]: A549 cell cytotoxicity, dose response, cytotoxicity control, plate reader, cherry-pick, antagonist series (AID 743412). The format is functional, cell-based.
Assay [8] is described as follows: NIH-3T3 fibroblast cytotoxicity, dose response, cytotoxicity control, cell-based, fluorescence, Alamar Blue, secondary assay (AID 2327).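 Also: NIH-3T3 mouse fibroblasts cultured with fluconazole at 8 µg/mL.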 The format is functional.
Assay [9] deals with Procathepsin L (Homo sapiens, UniProt P07711).
Chain of Procathepsin L (P07711 whole entry): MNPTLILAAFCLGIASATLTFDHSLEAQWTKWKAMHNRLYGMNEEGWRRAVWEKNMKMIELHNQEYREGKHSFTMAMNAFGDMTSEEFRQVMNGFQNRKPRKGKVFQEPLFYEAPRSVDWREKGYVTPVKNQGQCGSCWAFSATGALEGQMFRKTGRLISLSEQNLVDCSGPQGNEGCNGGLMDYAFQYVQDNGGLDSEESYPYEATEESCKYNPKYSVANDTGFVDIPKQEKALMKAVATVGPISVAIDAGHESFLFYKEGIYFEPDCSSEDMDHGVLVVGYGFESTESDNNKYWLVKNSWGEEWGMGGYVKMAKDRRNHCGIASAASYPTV
Assay [10] has as its target Large T antigen (Simian virus 40, UniProt P03070). It is filed as functional, Betapolyomavirus macacae.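 Also: Confirmatory-stage PubChem screen for compounds that inhibit SV40 T antigen.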
Assay [11] deals with HeLa. Briefly: HeLa cell cytotoxicity, dose response, cytotoxicity control, 24 h, cherry-picked samples (AID 504726).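 Also: potency for cytotoxicity as loss of luminescence signal.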 The conditions noted are these: Homo sapiens. It is filed as functional, cell-based.
Assay [12] deals with Salmon testes DNA. Kind of assay: DNA intercalators displacing acridine orange, dose response, artefact control for KSHV LANA DNA-binding inhibitor project, biochemical, fluorescence polarization, cherry-picked samples, set 2 (AID 504727). Details: species or system Salmonidae.
Assay [13] has as its target T3, ORF 73 (Human herpesvirus 8, UniProt O40947).
T3 sequence (O40947 whole entry): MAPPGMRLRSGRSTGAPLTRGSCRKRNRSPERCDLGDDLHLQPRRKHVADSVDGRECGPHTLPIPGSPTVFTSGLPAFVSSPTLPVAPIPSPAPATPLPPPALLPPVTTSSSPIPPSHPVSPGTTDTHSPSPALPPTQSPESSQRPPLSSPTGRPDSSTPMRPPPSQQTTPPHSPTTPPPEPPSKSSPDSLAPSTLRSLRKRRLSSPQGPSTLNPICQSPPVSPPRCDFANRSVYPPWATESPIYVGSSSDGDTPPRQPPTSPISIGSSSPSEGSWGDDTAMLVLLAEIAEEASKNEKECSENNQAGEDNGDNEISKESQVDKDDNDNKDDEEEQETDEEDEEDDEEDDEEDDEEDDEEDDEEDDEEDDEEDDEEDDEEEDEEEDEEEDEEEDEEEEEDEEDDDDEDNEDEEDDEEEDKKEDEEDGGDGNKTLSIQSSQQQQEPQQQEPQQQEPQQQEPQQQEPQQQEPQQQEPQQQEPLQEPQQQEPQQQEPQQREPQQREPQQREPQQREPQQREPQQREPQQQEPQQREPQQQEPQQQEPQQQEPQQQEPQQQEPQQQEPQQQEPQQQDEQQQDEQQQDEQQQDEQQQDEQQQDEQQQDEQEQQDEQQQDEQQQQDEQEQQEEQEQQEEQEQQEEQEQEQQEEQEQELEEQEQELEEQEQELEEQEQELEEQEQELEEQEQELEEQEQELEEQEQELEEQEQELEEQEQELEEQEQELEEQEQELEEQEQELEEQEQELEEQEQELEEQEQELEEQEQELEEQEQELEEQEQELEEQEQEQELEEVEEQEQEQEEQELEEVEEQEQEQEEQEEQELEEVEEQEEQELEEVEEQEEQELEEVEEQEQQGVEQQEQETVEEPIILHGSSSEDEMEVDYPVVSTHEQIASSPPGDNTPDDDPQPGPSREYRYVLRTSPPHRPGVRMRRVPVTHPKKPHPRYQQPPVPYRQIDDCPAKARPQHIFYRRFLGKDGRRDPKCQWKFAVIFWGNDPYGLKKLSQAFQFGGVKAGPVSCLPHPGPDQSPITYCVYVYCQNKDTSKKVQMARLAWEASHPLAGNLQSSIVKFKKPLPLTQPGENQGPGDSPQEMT
Briefly: inhibitors of C-LANA binding to LBS DNA, dose response, biochemical, fluorescence polarization, cherry-picked samples (AID 504725).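 Also: fluorescence polarization of a labeled DNA duplex reporting LANA DNA binding; potency is for inhibitors that block LANA binding to the DNA.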 Also noted: species or system Human gammaherpesvirus 8.

Assay [14] addresses Troponin, cardiac muscle (Homo sapiens, UniProt P19429+P45379+P63316). Briefly: inhibitors of cardiac thin filament calcium sensitivity, dose response, biochemical, fluorescence, cardiac regulated thin filaments, triplicate IC50 (AID 504742). The format is protein-complex assay.
For assay [15], the target named is Intestinal-type alkaline phosphatase (Homo sapiens, UniProt P09923). Briefly: inhibition of human intestinal alkaline phosphatase – biochemical, dose response (AID 488876). It is filed as functional.
Chain of Intestinal-type alkaline phosphatase (P09923 whole entry): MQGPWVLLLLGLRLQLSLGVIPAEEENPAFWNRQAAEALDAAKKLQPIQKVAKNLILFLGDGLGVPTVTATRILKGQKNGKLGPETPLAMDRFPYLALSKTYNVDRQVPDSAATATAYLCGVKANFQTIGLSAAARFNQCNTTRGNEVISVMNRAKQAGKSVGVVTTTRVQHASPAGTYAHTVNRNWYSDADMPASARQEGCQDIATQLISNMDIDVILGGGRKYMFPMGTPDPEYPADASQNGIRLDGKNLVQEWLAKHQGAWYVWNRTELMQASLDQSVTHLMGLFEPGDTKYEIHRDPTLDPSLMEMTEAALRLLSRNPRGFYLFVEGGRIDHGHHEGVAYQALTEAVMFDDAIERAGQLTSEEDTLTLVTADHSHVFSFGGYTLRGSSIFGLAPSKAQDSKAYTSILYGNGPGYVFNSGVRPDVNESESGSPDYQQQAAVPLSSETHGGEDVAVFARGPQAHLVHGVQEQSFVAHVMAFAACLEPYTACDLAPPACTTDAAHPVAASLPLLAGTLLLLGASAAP

Each structure is given as a SMILES string. Calls of active or inactive are those of the source.

Chain of Large T antigen (P03070 whole entry): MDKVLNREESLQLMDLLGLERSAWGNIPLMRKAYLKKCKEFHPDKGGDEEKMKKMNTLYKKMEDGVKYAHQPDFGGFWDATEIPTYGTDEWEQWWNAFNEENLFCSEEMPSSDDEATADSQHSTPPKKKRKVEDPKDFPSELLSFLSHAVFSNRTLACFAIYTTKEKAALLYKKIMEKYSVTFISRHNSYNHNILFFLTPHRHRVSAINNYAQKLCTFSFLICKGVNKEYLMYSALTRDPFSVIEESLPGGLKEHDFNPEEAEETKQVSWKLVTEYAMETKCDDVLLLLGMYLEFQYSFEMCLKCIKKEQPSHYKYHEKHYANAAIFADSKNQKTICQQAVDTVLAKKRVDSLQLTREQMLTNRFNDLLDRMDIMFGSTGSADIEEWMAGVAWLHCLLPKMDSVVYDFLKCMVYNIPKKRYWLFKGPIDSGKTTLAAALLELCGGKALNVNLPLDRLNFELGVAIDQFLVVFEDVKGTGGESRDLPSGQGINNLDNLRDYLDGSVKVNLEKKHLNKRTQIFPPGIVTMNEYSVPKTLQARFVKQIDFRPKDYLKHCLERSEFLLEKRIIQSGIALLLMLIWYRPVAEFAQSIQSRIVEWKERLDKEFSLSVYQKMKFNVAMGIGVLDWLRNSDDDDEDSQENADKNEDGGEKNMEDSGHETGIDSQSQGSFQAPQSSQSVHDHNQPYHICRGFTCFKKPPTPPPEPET
Chain of Histone-lysine N-methyltransferase NSD2 (O96028 whole entry): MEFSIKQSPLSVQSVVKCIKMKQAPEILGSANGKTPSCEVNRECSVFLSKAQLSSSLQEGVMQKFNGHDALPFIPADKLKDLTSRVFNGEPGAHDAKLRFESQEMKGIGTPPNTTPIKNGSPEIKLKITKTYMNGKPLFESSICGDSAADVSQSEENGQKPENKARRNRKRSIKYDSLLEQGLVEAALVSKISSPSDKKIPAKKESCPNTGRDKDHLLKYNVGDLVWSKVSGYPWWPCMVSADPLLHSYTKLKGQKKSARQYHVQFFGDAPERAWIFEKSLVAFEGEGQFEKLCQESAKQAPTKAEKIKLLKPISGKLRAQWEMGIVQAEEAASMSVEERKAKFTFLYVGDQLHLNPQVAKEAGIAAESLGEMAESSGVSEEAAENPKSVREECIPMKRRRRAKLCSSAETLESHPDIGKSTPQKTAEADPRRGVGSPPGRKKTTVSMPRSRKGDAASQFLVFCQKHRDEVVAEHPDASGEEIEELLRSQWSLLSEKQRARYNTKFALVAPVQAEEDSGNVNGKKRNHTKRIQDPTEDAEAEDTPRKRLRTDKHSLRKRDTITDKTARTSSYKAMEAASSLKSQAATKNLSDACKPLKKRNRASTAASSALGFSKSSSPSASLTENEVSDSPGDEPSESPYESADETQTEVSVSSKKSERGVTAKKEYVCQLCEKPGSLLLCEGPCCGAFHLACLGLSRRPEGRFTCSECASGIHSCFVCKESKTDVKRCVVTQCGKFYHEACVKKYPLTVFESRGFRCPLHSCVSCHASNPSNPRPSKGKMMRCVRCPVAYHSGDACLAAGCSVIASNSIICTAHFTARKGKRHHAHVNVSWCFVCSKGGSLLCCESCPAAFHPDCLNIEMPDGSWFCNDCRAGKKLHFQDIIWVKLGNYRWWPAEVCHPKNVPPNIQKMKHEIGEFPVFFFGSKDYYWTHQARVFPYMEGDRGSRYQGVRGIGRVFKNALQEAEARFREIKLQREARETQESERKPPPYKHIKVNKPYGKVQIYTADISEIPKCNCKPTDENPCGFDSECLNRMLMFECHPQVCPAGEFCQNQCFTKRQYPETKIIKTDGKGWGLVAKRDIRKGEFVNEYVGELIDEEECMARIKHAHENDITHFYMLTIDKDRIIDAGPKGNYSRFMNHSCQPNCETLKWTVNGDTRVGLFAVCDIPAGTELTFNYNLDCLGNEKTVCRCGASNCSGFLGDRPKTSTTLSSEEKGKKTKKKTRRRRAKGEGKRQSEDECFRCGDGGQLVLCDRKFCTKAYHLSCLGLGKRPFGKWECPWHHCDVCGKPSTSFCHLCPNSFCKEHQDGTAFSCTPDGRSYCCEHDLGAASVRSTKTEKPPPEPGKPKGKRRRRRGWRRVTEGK

As a reminder, the AC50 is the concentration giving half of the maximal activity seen. By EC50 is commonly meant the concentration needed to bring the measured effect to its halfway point. Regarding `CNCc1ccccc1Sc1ccc(O)c(O)c1`, the IC50 in [1] is > 100 µM (active); in assay [3] it was 1.89 µM (active); in [4], > 66 µM (inactive); in assay [9], > 59.6 µM (not active). Moreover, the AC50 in [2] is > 52 µM (inactive); in [6], > 20 µM (inactive); in [7], > 52 µM (inactive). Moreover, the EC50 in assay [5] was > 38 µM (not active); in [8] it was > 150 µM (inactive).
Turning to `O=C(O)c1cc(N2N=C(C(F)(F)F)/C(=C/C=C/c3ccco3)C2=O)ccc1Cl`, the IC50 in [10] is 4.47 µM (active); in assay [14], > 2.65 µM (active). Further, the figures for the half-maximal activity concentration (AC50) in [11], in assay [12] and in assay [13] were 24.9 µM (active), 126 µM (active) and 2.28 µM (active), respectively.
Consider `O=C(/C=C/c1ccco1)NC(=S)Nc1cccc(C(=O)O)c1`, for which the IC50 in [15] was > 100 µM (inactive).
